Usually AUC(0-t) stands for the area under the concentration-time curve up to a stated or last time point. Lower therefore signals low exposure. Broadly, the Cmax is the peak of the concentration-time curve. A word on the Tmax: it is the time at which the peak concentration occurs. A word on the half-life: it is the time in which the quantity being followed falls by half. A higher half-life goes with slow decline.

One series concerns T. b. brucei. In words: Trypanosoma susceptibility assay (resazurin viability). The class given is cell-based. As to conditions: for IC50: Trypanosoma brucei. As for the experimental part:
(§1) The antiparasitic assays were carried out exactly as described in Blaazer et al.([39]) Metabolic stability, pharmacokinetics, acute mouse infection model results were collected as described previously.[21] All animal experiments were conducted in compliance with institutional guidelines and following approval by the Ethical Committee of the University of Antwerp, Belgium [UA-ECD 2014–96]. Female Swiss mice (15–20 g), were purchased from Janvier (Le Genest Saint Isle, France). […] Animals were treated PO b.i.d. for 5 days at 25 and 50 mg/kg 31c. For the SL-RNA qPCR experiments blood was collected sublingually and subjected to erythrocyte lysis before extracting RNA with the QIAamp RNA Blood Mini kit (Qiagen). […] Small pieces of fat, brain, and spleen tissue were excised and immediately transferred to RNA later (Qiagen) and incubated overnight at 4 °C. RNA extraction was performed as instructed in the RNeasy Mini Plus Kit manual (Qiagen). The one-step SensiFAST SYBR Hi-Rox PCR kit (Bioline USA Inc., via Gentaur Belgium BVBA, Kampenhout, Belgium) was used for the PCR with the following forward and reverse primers, respectively 5′-[…]-3′ and 5′-[…]-3′. An initial activation step of 10 min at 45 °C and 10 min at 95 °C was used, followed by the amplification step for 40 cycles (15 s at 95 °C, 15 s 50 °C and 15 s at 60 °C). At last, the melting curves were generated with an increment of 0.3 °C (15 s at 95 °C 1 min at 45 °C and 15 s at 95 °C). The PCR was run on the Step One Plus real-time PCR system (Applied Biosystems, California, USA). An additional qPCR was performed with the mouse housekeeping gene Eef2 to confirm successful RNA extraction.
In vitro experiments were carried out with the bloodstream form of the T. b. brucei Squib strain (suramin-sensitive). Parasites were routinely cultured in T25 culture flasks containing 10 mL of HMI-9 medium (Invitrogen) supplemented with 10% heat-inactivated fetal bovine serum (Life Technologies) and 2.5 μg/mL Geneticin (Life Technologies). MRC-5SV2 cells were cultured in MEM + Earl’s salts-medium, supplemented with 2 mM L-glutamine, 16.5 mM NaHCO3, and 5% inactivated fetal calf serum. All cultures and assays were conducted at 37 °C under an atmosphere of 5% CO2.
Parasites were counted in a KOVA counting chamber and diluted to 1.5 × 10^4 parasites/well of a 96-well plate (200 μL total volume), upon which the prediluted test compounds were added. Drug exposure covered a 72 h period without renewal of the culture medium. After 3 days of incubation, parasite growth was assessed fluorimetrically after addition of 50 μL of resazurin per well. After 6 h (T. b. rhodesiense) or 24 h (T. b. brucei) at 37 °C, fluorescence is measured (λex 550 nm, λem 590 nm). Parasite viability was assessed using the resazurin viability assay, and drug activity was calculated as percentage viability reduction compared to nontreated controls.
On the technique in general: Resazurin is reduced to fluorescent resorufin, in cell work by metabolically active cells.

A short description of series [1]: In vivo pharmacokinetics in non-infected mice. As for the experimental part:
as §1
Blood drops were sampled before treatment and at 0.5, 1, 2, 4, 6, and 24 h after PO dosage; samples after IP dosage were identical with an additional time point of 0.25 h. The blood drops were analyzed adopting the dry blood spot technique and analysis by LC-MS^2. Briefly, blood was collected from the retro-orbital complex using capillary tubes and dropped (15 μL) on WhatmanFTADMPK cards (B). The spots were left to air-dry at room temperature for at least 2 h. For analysis, a 6 mm disk was punched out and extracted in 75:25 MeCN/water containing the internal standard tolbutamide. The amount of parent compound was determined using liquid chromatography (UPLC) (Waters Aquity) coupled with tandem quadrupole mass spectrometry (MS^2) (Waters Xevo) equipped with an electrospray ionization (ESI) interface and operated in multiple reaction monitoring mode. Standard curves in whole blood were made for calibration and validation. Standard PK parameters were determined using Topfit software.
Brain tissue of the animals was collected on ice at autopsy 24 h post-treatment (50 mg/kg oral dose) after perfusion. […] The tissues were immediately homogenized using a GentleMacs tissue homogenizer. The tissue samples were subjected to protein precipitation by adding MeCN, followed by a centrifugation step at 4 °C for 5 min at 21, 130 g. The supernatant was further diluted in 75:25 MeCN/water for LC-MS^2 analysis as described above.

The mark [2] stands for this setting: female, Swiss, mouse, in vivo, ip, 10 mg/kg.
[3] abbreviates: female, Swiss, mouse, in vivo, po, 50 mg/kg.

Structures are written as SMILES. Where two headings read alike, the source gives them in different places.

Take `CC(C)(C)c1n[nH]c2c(=O)[nH]c(-c3ccc(F)cc3)nc12` [31c, 3-(tert-Butyl)-5-(4-fluorophenyl)-1,6-dihydro-7H-pyrazolo[4,3-d]pyrimidin-7-one]: in the series with T. b. brucei (T. brucei, versus compound 2), the “improved potency compared to 2” value stood at 4 fold. Moreover, the IC50 in the series with T. b. brucei (72 h, T. b. brucei Squib bloodstream form, 72 h exposure, mean ± SD, n ≥ 2, read-out: pIC50 T. brucei (converted)) is 15.8 nM. In addition, the IC50 in the series with T. b. brucei (read-out: IC50 against T. b. brucei) was found to be 17 nM. In series [1] (both routes (10 mg/kg IP, 50 mg/kg PO)), the “blood concentration exceeding the in vitro IC50 against T. brucei” value was “more than 300 fold”. Further, in series [1] (setting [2]), the AUC(0-t) at 24 h was 2470 ± 1560 ng·h/mL, the Cl turned out to be 326 ± 148, the Cmax at 24 h came out at 5.05 ± 1.51 µM and the Tmax at 24 h is 0.5 ± 0.3 h. In series [1] (setting [2]), this compound had a half-life at 24 h of 1.56 ± 0.5 h. Moreover, in series [1] (setting [3]), the “AUC0–6 h higher compared with 2” value is given as “more than 7 fold”, the area under the curve AUC(0-t) at 24 h was determined as 43400 ng·h/mL, the Cl turned out to be 11 ± 1 and the peak concentration (Cmax) at 24 h worked out at 10.9 ± 1.69 µM. In series [1] (setting [3]), the Tmax at 24 h was 6 h, the concentration at 24 h is 0.296 µM and the half-life at 24 h was 3.51 ± 1.34 h.
